#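 These data come from cells grown in 96-well plates and exposed to compound for 48 hours at five concentrations. Here, GI50 denotes the concentration required for 50% inhibition of growth. TGI: total growth inhibition.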
# Key:
# Assay in all cases: inhibition of tumour cell growth, NCI panel, 48 h
# [1] = system: HL-60(TB) leukemia
# [2] = system: SF-539 CNS
# [3] = system: SF-268 CNS
# [4] = system: SF-295 CNS
# [5] = system: OVCAR-8 ovarian
# [6] = system: EKVX NSCLC
# [7] = system: DU-145 prostate
# [8] = system: 786-0 renal
# [9] = system: OVCAR-4 ovarian
# [10] = system: CCRF-CEM leukemia
Compound,TGI [1] [µM],TGI [2] [µM],TGI [3] [µM],TGI [4] [µM],TGI [5] [µM],TGI [6] [µM],TGI [7] [µM],TGI [8] [µM],TGI [9] [µM],GI50 [2] [µM],GI50 [3] [µM],GI50 [4] [µM],GI50 [10] [µM],TGI [10] [µM],GI50 [6] [µM],GI50 [7] [µM],GI50 [8] [µM],GI50 [9] [µM],GI50 [1] [µM],GI50 [5] [µM]
COC(=O)C1c2cc3c(c(O)c2CCC1(C)O)C(=O)c1c(O)cc2c(c1C3=O)OC1OC2(C)C(O)C(N(C)C)C1O (configuration not stated),2.8,3.88,11.1,1.87,0.591,0.774,0.561,2.63,1.45,,,,,,,,,,,
CC1(C)CC[C@]23CC[C@]4(C)[C@H](CC[C@@H]5[C@@]6(C)CCCNC(C)(C)[C@@H]6CC[C@]54C)[C@H]2[C@H]1OC3,,3.07,5.31,3.19,,3.37,3.23,3.21,3.12,1.64,2.04,1.7,2.32,6.73,1.68,1.74,1.66,1.65,,
CCN(N=O)C1C2(CCCC2)NC(=O)C12CCCC2 (configuration not stated),> 100,> 100,> 100,> 100,> 100,> 100,,> 100,> 100,,,,,> 100,,,,,,
CC(=O)OCc1nnn2c1C(OC(C)=O)CC2 (configuration not stated),,> 100,,> 100,> 100,> 100,,> 100,> 100,,,,,,,,,,,
O=S(=O)(NCCNc1nccc(-c2c(-c3ccc(F)cc3)nc3sccn23)n1)c1ccc(O)cc1,30.5,30.7,56.2,34.6,22.5,,28.8,39.7,21.6,11.3,3.99,10.4,2,29.8,,3.17,4.26,3.52,4.93,1.98
COc1ccc(-c2cc(=O)c3c(OC)c4ccoc4c(/C=C/C=O)c3o2)cc1,8.33,19.6,87.2,26.5,27.3,,18.9,72.5,> 100,4.14,4.38,3.4,1.09,> 100,,4.53,16.8,3.8,2.72,2.83
CCOC(=O)CCc1c(C)c2c(OC)cc(OC)cc2oc1=O,> 100,> 100,> 100,> 100,> 100,> 100,,> 100,> 100,,,,,,,,,,,
COC(=O)C1C(C(=O)O)C2(c3ccccc3)C(=O)C1(c1ccccc1)C(c1ccc(OC)cc1)=C2c1ccc(OC)cc1 (configuration not stated),,34,82.2,77.2,30.8,52.7,49.8,40.4,55.2,17.7,25,30.3,13.2,38.5,18.6,19.9,18.6,19.7,,15.9
Cc1[nH]c(=O)n2c(C)nnc2c1C(=O)O,> 100,> 100,> 100,> 100,> 100,> 100,,> 100,> 100,,,,,> 100,,,,,,
CS(=O)(=O)N1CCC(Nc2ncc(C(=O)c3c(F)cccc3F)c(N)n2)CC1,> 25,> 25,> 25,> 25,> 25,,> 25,> 25,> 25,9.36,> 17.9,11.2,9.91,> 25,,9.76,12.6,> 13.5,8.65,9.7
Nc1c(C(=O)Nc2cccc(Cl)c2)sc2nc3c(cc12)C(O)CCC3 (configuration not stated),0.821,0.965,39.1,16.3,22.9,,16.3,20.4,40.2,0.275,0.754,0.314,0.31,17.3,,0.388,0.66,5.51,0.234,0.714
Cc1ccc(C2=NN(c3ccc(S(=O)(=O)NC(=O)NCc4ccccc4)cc3)C(c3ccc(N(C)C)cc3)C2)c(C)c1 (configuration not stated),11.9,6.02,45.1,,> 100,,16.6,36.1,> 100,2.43,4.37,,3.2,89,,4.6,4.37,3.54,3.02,3.81
CCOC(=O)C(C(=O)OCC)=C1C=C(c2ccccc2)c2ccccc21,92,> 100,> 100,> 100,> 100,> 100,,> 100,> 100,,,,,> 100,,,,,,
CC(=O)[O-].CC(=O)[O-].O=C([CH-]C(=O)c1ccccc1)c1ccccc1.[Nd+3].[OH3+],31.8,93.5,> 100,35.2,> 100,76.5,,63.9,> 100,31.6,16.8,10.7,,,24.5,,19.4,27,7.85,15.8
C[C@@H](NC1CCCC[C@@H]1O)c1ccccc1 (some centres not stated),> 100,,,> 100,> 100,> 100,,> 100,> 100,,,,,> 100,,,,,,
Cc1ccc2ncnc(N(C)C3CCCCC3)c2c1,,,89.8,46.9,63.8,,> 100,> 100,> 100,,23.7,18.9,34.7,> 100,,33.9,32.3,76.5,,14.6
O=C(Cc1cc(O)ccc1O)NO,,> 100,> 100,47.9,> 100,> 100,> 100,34.5,> 100,> 100,> 100,21.7,22.3,48.6,> 100,> 100,18.9,> 100,,> 100
